Laboratory results taken from patent US9115358B2, “Moenomycin biosynthesis-related compositions and methods of use thereof” (priority 2006, dated 2015).
“Also recorded” adds a separate entry of the source.

How the values were obtained:
[1] = tested on: B. cereus; assay: Antibiotic disc diffusion assay of antibacterial activity against B. cereus; assay type: cell-based, Bacillus cereus ATCC19637; settings: purified moe A intermediates on B. cereus reporter strain; FIG. 19, 50-200 nM per disc
Experimental: Spots 1 and 2—moe A (100 and 10 nM per disc, respectively); 3—compound 15 (100 nM); 4—compound 16 (100 nM), 5—compound 17 (100 nM), 6—compound 24 (100 nM), 7—mixture of compounds 22 and 23 (200 nM), 8—compound 11 (100 nM), 9—mixture of compounds 22 and 23 (50 nM), 10—mixture of compounds 2 and 3 (200 nM), 11—compound 1 (200 nM), 12—extract from 5 g S. lividans TK24 mycelial cake.
Moes producers S. ghanaensis ATCC14672 and S. bambergiensis NRRL-B12101 were obtained from American Type Culture Collection (“ATCC”) and the U.S. Department of Agriculture, respectively. S. lividans TK24, S. coelicolor M145 (Kieser 2000), S. cyanogenus S136 (Westrich 1999) were used in studies on moe A resistance in Streptomyces. Bacillus cereus ATCC19637 was used as a moe-sensitive test culture.
For all moe production analysis procedures, equal amounts of biomass (wet weight) and fermentation medium were used. […]
Heterologous expression of moe biosynthetic genes in S. lividans TK24 leads to the production of moe derivatives and intermediates. […] Antibiotic disc diffusion assay, LC-MS, MS/MS and determination of accurate mass spectra of moenomycins were carried out as described in (Ostash 2007). ^1H NMR spectra of compound 11 (FIG. 4) were recorded on a Varian Inova 500 (500 MHz) instrument in D2O (4.80 ppm). […]

[2] = tested on: bacteria; settings: cited from earlier work

| Compound | antibacterial activity (bioactivity) in disk diffusion assay [1] | activity in vivo (biological / antibacterial activity) [2] |
| --- | --- | --- |
| C=C(C/C=C(\C)CCC=C(C)C)CCC(C)(C)/C=C/CC/C(C)=C\CO[C@H](COP(=O)(O)OC1OC(C(N)=O)C(C)(O)C(OC(N)=O)C1OC1OC(COC2OC(CO)C(O)C(O)C2O)C(O)C(O)C1NC(C)=O)C(=O)O (some centres unmarked) [Compound 11] | has biological activity; also recorded: biologically active | – |
| Neryl-moenomycin | – | biologically inactive |
